The Deep4Chem optical property database
Blank lines part the entries; values can stand above or below the molecule they belong to.

Experiment: solvent given as SMILES

Compound: COc1ccc(-c2cc(C)nc(-c3ccc(-n4c5ccccc5c5ccccc54)cc3)n2)cc1
- fluorescence lifetime (in C1CCOC1): 2.56 ns
- fluorescence lifetime (in CN(C)C=O): 5.31 ns
- fluorescence lifetime (in Cc1ccccc1): 1.21 ns
- fluorescence lifetime (in ClC(Cl)Cl): 2.97 ns

Compound: c1cc2c3c(c1)-c1ccc4c5c(ccc(c15)B3c1ccc3c5c(ccc-2c15)CC3)CC4
- fluorescence lifetime (in Cc1ccccc1): 5.28 ns

Compound: CC(C)c1cccc(C(C)C)c1N1C(=O)c2cc(Cl)c3c4c(Cl)cc5c6c(cc(Cl)c(c7c(Cl)cc(c2c37)C1=O)c64)C(=O)N(c1c(C(C)C)cccc1C(C)C)C5=O
- fluorescence lifetime (in Cc1ccccc1): 5.11 ns

Compound: N#Cc1ccc(/C=C2\OC(=O)c3cc(N)ccc32)cc1
- fluorescence lifetime (in CC#N): 0.51 ns
- fluorescence lifetime (in CC(C)=O): 0.54 ns
- fluorescence lifetime (in CC(C)CO): 2.4 ns
- fluorescence lifetime (in CCO): 2.2 ns
- fluorescence lifetime (in CCOC(C)=O): 0.75 ns
- fluorescence lifetime (in CO): 2.67 ns

Compound: CC1=[N+]2C(=C(c3ccc(N(C)C)cc3)c3ccc(C)n3[B-]2(F)F)C=C1
- fluorescence lifetime (in C1CCCCC1): 2.72 ns
- fluorescence lifetime (in Cc1ccccc1): 3.24 ns

Compound: c1ccc(-n2cccc2)cc1
- fluorescence lifetime (in CC#N): 3.6 ns
- fluorescence lifetime (in CCCCCC): 3.5 ns

Compound: c1ccc(-c2cc(-c3ccccc3)cc(-c3ccc4c(c3)C3(c5cc(-c6cc(-c7ccccc7)cc(-c7ccccc7)c6)ccc5-4)c4ccccc4-c4c3c3c5ccccc5ccc3c3ccccc43)c2)cc1
- fluorescence lifetime (in Cc1ccccc1): 3.07 ns

The next lines start with the values.

- fluorescence lifetime (in ClCCl): 1.22 ns
Compound: Cc1c(C2=[N+]3C(=Cc4c(C)c5ccccc5n4[B-]3(F)F)c3ccccc32)[nH]c2ccccc12

- fluorescence lifetime (in C1COCCO1): 1.2 ns
Compound: CCC12C(=C3C(=C4c5ccccc5S(=O)(=O)C41CC)C(F)(F)C(F)(F)C3(F)F)c1ccccc1S2(=O)=O (centres undefined)

- fluorescence lifetime (in CCOC(C)=O): 3.5 ns
- fluorescence lifetime (in CS(C)=O): 4 ns
Compound: COc1nc(Cl)nc(Nc2ccc3c4cccc5cccc(c6cccc2c63)c54)n1

- fluorescence lifetime (in C1CCCCC1): 4.5 ns
Compound: c1ccc(-c2cc3cccc[n+]3[b-]3c(-c4cccc5[b-]4[n+]4ccccc4cc5-c4ccccc4)cccc32)cc1

- fluorescence lifetime (in CCO): 3.19 ns
- fluorescence lifetime (in O): 2.23 ns
Compound: CN(C)c1ccc2c(-c3ccc(N)cc3C(=O)[O-])c3ccc(=[N+](C)C)cc-3oc2c1

- fluorescence lifetime (in CC#N): 0.58 ns
Compound: COc1ccc(/C=C/c2ccc(-c3ccc(C)cn3)nc2)cc1

- fluorescence lifetime (in ClCCl): 0.4 ns
Compound: CC1=C(I)C(C)=[N+]2C1=C(c1c(-c3ccccn3)nc3ccccn13)c1c(C)c(I)c(C)n1[B-]2(F)F

- fluorescence lifetime (in CO): 0.21 ns
- fluorescence lifetime (in ClC(Cl)Cl): 1.42 ns
Compound: CN1C(=CC2=C([O-])C(=CC3=[N+](C)c4ccc(Cl)cc4C3(C)C)C2=O)C(C)(C)c2cc(Cl)ccc21

- fluorescence lifetime (in ClC(Cl)Cl): 1.2 ns
Compound: C(#Cc1ccccc1)C(C#Cc1ccccc1)=Cc1ccc(C=C(C#Cc2ccccc2)C#Cc2ccccc2)cc1
